Test results taken from article PMC7417771, “Thiol-ene Enabled Chemical Synthesis of Truncated S-Lipidated Teixobactin Analogs” (Frontiers in Chemistry, 2020).
Converted amounts (≈) assume the structure as drawn. Like-named read-outs stand apart in the source and are kept apart here. Positions of bridges follow the written chain, without caps; N, C: chain ends. Non-standard residues stand in square brackets, D forms with d. Residues, ends and D or L forms follow the SMILES beside them. *: point of attachment. Ethyl(2-palmitoyloxy) = CCCCCCCCCCCCCCCC(=O)OCC*; Ethyl(2-butanoyloxy) = CCCC(=O)OCC*; Ethyl(2-OBz) = O=C(OCC*)c1ccccc1; Lauroyl = CCCCCCCCCCCC(=O)*; X1 = CCCCCCCCCCCC(=O)OCC*; X3 = CCCCCCCC(=O)OCC*; X2 = CCCCCC(=O)OCC*; Mpa = O=C(O)CCS

How the values were obtained:
[1] = test system: Gram-positive bacterial species; conditions: range over species, ref Yang H. et al., 2016, cited from earlier work
Experimental: Despite this substitution, the L-Arg^10-teixobactin analog maintained excellent, albeit reduced potency, with MIC values ranging 1–4 μg/mL across a number of Gram-positive bacterial species (Yang H. et al., [2016]; Zong et al., [2018]). The rationale for this substitution being that the positive charge from the guanidinium group was the moiety responsible for eliciting antibacterial activity.

[2] = test system: methicillin-resistant Staphylococcus aureus (MRSA); conditions: cited from earlier work
Source text: Nature has historically been the primary source of medicinally important antibiotics (Moloney, [2016]). By screening soil microorganisms, Ling et al. discovered the novel antimicrobial peptide (AMP) teixobactin (1, Figure 1), isolated from bacterium Eleftheria terrae (Ling et al., [2015]). […] Crucially, resistance in S. aureus was not induced by exposure to sub-lethal doses of teixobactin. The lack of resistance wa ... || Figure 1 Structures of teixobactin 1 and teixobactin analogs; Arg^10-teixobactin 2, lipobactin 3, and Lys^10-farnesylbactin 4. Examples of most relevant MICs from the literature are shown above each structure. Yang H. et al. ([2016]), Girt et al. ([2018]), Zong et al. ([2018]) The End^10, Arg^10 and Lys^10 substitutions (red) and the lipid moieties of lipobactin 3 and farnesylbactin 4 (blue) are highlighted.

[3] = test system: S. epidermidis ATCC 14990; conditions: cited from earlier work; for MIC (S. epidermidis): Figure 1, ref Yang H. et al. (2016), Girt et al. (2018), Zong et al. (2018)
Experimental: Figure 1 Structures of teixobactin 1 and teixobactin analogs; Arg^10-teixobactin 2, lipobactin 3, and Lys^10-farnesylbactin 4. Examples of most relevant MICs from the literature are shown above each structure. Yang H. et al. ([2016]), Girt et al. ([2018]), Zong et al. ([2018]) The End^10, Arg^10 and Lys^10 substitutions (red) and the lipid moieties of lipobactin 3 and farnesylbactin 4 (blue) are highlighted. […] Lipobactin 3 was prepared using Fmoc-SPPS as described by the Nowick group (Yang H. et al., [2016]) and purified to 95% (Yang H. et al., [2016]). […] Despite the distinct similarity to lipobactin 3, in which hydrophobic residues 1–5 of teixobactin are also replaced with ...

[4] = Analytical RP-HPLC retention time as measure of hydrophobicity; assay type: physicochemical; conditions: for RP-HPLC column retention time tR: chromatographic, analytical RP-HPLC, Waters Xterra MS C18 5 μm 4.6 × 150 mm, buffer A 0.1% TFA in H2O, buffer B 0.1% TFA in MeCN, used as measure of hydrophobicity; for Δt, retention time difference to lipobactin 3: tR of the compound minus tR of 3, same RP-HPLC C18 system; for Hydrophobicity relative to lipobactin 3 as judged by RP-HPLC retention time: in words
Experimental: We evaluated the antibiotic activity of the analogs 8a–8f against S. aureus using lipobactin 3 as a reference compound. Lipobactin 3 was prepared using Fmoc-SPPS as described by the Nowick group (Yang H. et al., [2016]) and purified to 95% (Yang H. et al., [2016]). […] To examine the reasons for the lack of bioactivity, the hydrophobicity of the S-lipidated teixobactin analogs as a function of lipid tail length were examined by analyses of their RP-HPLC retention times and compared to that of lipobactin 3 (Table 1).
(§1) Microwave irradiated reactions were performed in a CEM (Matthews, NC) Discover SP, Model 908010 reactor. Dibenzofulvene measurements for the Fmoc release assay was performed in a Shimadzu (Kyoto, Japan) UV-1280 spectrophotometer at 290 nm. Analytical RP-HPLC was used to analyse final compounds and performed on a Dionex (Sunnyvale, CA) UltiMate 3000 system using a Waters (Milford, MA) Xterra MS C18 (5 μm 4.6 × 150 mm) column, and Chromeleon software was used for data processing. Buffer A: 0.1% (v/v) TFA in H2O; buffer B: 0.1% (v/v) TFA in MeCN. LC-MS was performed on an Agilent (Santa Clara, CA) 1260 Infinity with UV absorbance at λ = 214 nm equipped with an Agilent 6120 Quadrupole LC-MS using an Agilent Zorbax 300SB-C3 column (3.5 μm, 3.0 × 150 mm) column with a linear gradient of 5 – 95% B (ca. 3% B/min) at r.t., with a flow rate of 0.3 mL/min. Data processing was carried out by Agilent OpenLAB software. Buffer A: 0.1% (v/v) formic acid in H2O; buffer B: 0.1% (v/v) formic acid in MeCN. Crude peptides were purified on Dionex UltiMate 3000 preparative HPLC using Agilent Zorbax 300SB-C18 column (5 μm, 9.4 × 250 mm) and Chromeleon software was used for data processing. Ultraviolet irradiation was carried out using Spectroline (Westbury, NY) hand-held lamp EA-160/FA, 6W integrally filtered tube at 50 Hz, 0.17 A and λ = 365 nm. Biological assays were carried out inside a Thermo Fisher (Waltham, MA) HERAsafe KSP 12 biological safety cabinet on 96-well plates obtained from MediRay (Auckland, New Zealand). Mueller Hinton (MH) broth and Staphylococcus aureus ATCC 29213 was obtained from Thermo Fisher. Media and bacteria were incubated in N-Biotek (Geyonggi, South Korea) NB205L shaker.

[5] = test system: Staphylococcus aureus ATCC 29213; assay type: cell-based
Experimental: as §1
Staphylococcus aureus ATCC 29213 was grown in non-cation adjusted Mueller Hinton (MH) broth at 37 °C with shaking (200 rpm). […] Overnight cultures of bacteria were diluted in fresh MH before adding 50 µL of inoculum to each well of the MIC plate, to achieve a final volume of 100 µL with a uniform CFU/ml of ~5 x10^5 in each well. Plates were incubated at 37 °C with shaking for 24 h before determining the MIC.

[6] = Figure 1, ref Yang H. et al. (2016), Girt et al. (2018), Zong et al. (2018)

Molecule | RP-HPLC column retention time tR [4] | Δt, retention time difference to lipobactin 3 [4] | MIC, S. aureus ATCC 29213 ([5]; ATCC 29213, 24 h) | Hydrophobicity relative to lipobactin 3 as judged by RP-HPLC retention time [4] | also measured
L-Arg^10-teixobactin [Compound 2] | – | – | – | – | MIC values across a number of Gram-positive bacterial species ([1]; Zong et al., 2018): 1 to 4 µg/mL; MIC across a range of Gram-positive bacterial species [1]: 1 to 4 µg/mL; MIC (MRSA) [2, 6]: 2 µg/mL; MIC (S. epidermidis) [3]: 1 µg/mL
CCCCCCCC(=O)OCCSCCC(=O)N[C@H](C(=O)N[C@@H](CO)C(=O)N[C@H]1C(=O)N[C@@H](C)C(=O)N[C@@H](CCCNC(=N)N)C(=O)N[C@@H]([C@@H](C)CC)C(=O)O[C@H]1C)[C@@H](C)CC [Compound 8c] ([Mpa](X3)IS[dT]ARI; ester 4-C) | 18.89 min | -1.5 min | > 128 µM | – | –
CCCCCCCCCCCC(=O)OCCSCCC(=O)N[C@H](C(=O)N[C@@H](CO)C(=O)N[C@H]1C(=O)N[C@@H](C)C(=O)N[C@@H](CCCNC(=N)N)C(=O)N[C@@H]([C@@H](C)CC)C(=O)O[C@H]1C)[C@@H](C)CC [Compound 8d] ([Mpa](X1)IS[dT]ARI; ester 4-C) | 23.21 min | +2.8 min | > 128 µM | more hydrophobic than 3 | –
teixobactin [Compound 1] | – | – | – | – | MIC (MRSA) [2, 6]: 0.25 µg/mL; MIC (MRSA) ([2]; ref Ling et al., 2015): 0.25 µg/mL
CCCCCCCCCCCC(=O)N[C@H](C(=O)N[C@@H](CO)C(=O)N[C@H]1C(=O)N[C@@H](C)C(=O)N[C@@H](CCCNC(=N)N)C(=O)N[C@@H]([C@@H](C)CC)C(=O)O[C@H]1C)[C@@H](C)CC [Compound 3, lipobactin, reference compound] (Lauroyl-IS[dT]ARI; ester 3-C) | 20.38 min | 0 min | 8 µM (≈ 6.59 µg/mL) | – | MIC, S. aureus ATCC 29213, converted to mass concentration ([5]; ATCC 29213, 24 h): ca. 6.5 μg/mL; MIC across a range of Gram-positive bacterial species [1]: 4 to 8 µg/mL; MIC (S. epidermidis) [3]: 4 µg/mL (≈ 4.85 µM); MIC against S. epidermidis ATCC 14990 ([3]; reported MIC, ref Yang H. et al., 2016): 4 µg/mL (≈ 4.85 µM)
CC[C@H](C)[C@H](NC(=O)CCSCCOC(=O)c1ccccc1)C(=O)N[C@@H](CO)C(=O)N[C@H]1C(=O)N[C@@H](C)C(=O)N[C@@H](CCCNC(=N)N)C(=O)N[C@@H]([C@@H](C)CC)C(=O)O[C@H]1C [Compound 8f] ([Mpa](Ethyl(2-OBz))IS[dT]ARI; ester 4-C) | 15.93 min | -4.5 min | – | – | MIC, S. aureus ATCC 29213 ([5]; non-cation adjusted Mueller Hinton broth, two-fold dilution 128 to 0.0625 µM, ~5 x10^5 CFU/ml, 37 °C with shaking, 24 h, lowest concentration at which growth did not occur): > 128 µM
CCCC(=O)OCCSCCC(=O)N[C@H](C(=O)N[C@@H](CO)C(=O)N[C@H]1C(=O)N[C@@H](C)C(=O)N[C@@H](CCCNC(=N)N)C(=O)N[C@@H]([C@@H](C)CC)C(=O)O[C@H]1C)[C@@H](C)CC [Compound 8a] ([Mpa](Ethyl(2-butanoyloxy))IS[dT]ARI; ester 4-C) | 14.98 min | -5.4 min | > 128 µM | more hydrophilic than 3 | –
CCCCCC(=O)OCCSCCC(=O)N[C@H](C(=O)N[C@@H](CO)C(=O)N[C@H]1C(=O)N[C@@H](C)C(=O)N[C@@H](CCCNC(=N)N)C(=O)N[C@@H]([C@@H](C)CC)C(=O)O[C@H]1C)[C@@H](C)CC [Compound 8b] ([Mpa](X2)IS[dT]ARI; ester 4-C) | 16.88 min | -3.5 min | > 128 µM | more hydrophilic than 3 | –
CCCCCCCCCCCCCCCC(=O)OCCSCCC(=O)N[C@H](C(=O)N[C@@H](CO)C(=O)N[C@H]1C(=O)N[C@@H](C)C(=O)N[C@@H](CCCNC(=N)N)C(=O)N[C@@H]([C@@H](C)CC)C(=O)O[C@H]1C)[C@@H](C)CC [Compound 8e] ([Mpa](Ethyl(2-palmitoyloxy))IS[dT]ARI; ester 4-C) | 27.98 min | +7.6 min | > 128 µM | more hydrophobic than 3 | –
